{"source": "patent US20260297542A1", "about": "“HERBICIDE RESISTANT PLANTS” (SYNGENTA CROP PROTECTION AG, priority 2023, published 2026)", "key": {"[1]": {"molecular_target": "T1, His-TEV-AtPPO1 ΔcTP V002 (SEQ ID NO: 373) (Arabidopsis thaliana, UniProt P55826, L479M/S305L/Y426V)", "T1 construct": "with cTPs removed; made in house; host or cells: E. coli BL21 (DE3), His GraviTrap, partially purified", "T1 sequence (P55826 with tags, fused parts or gaps S305L/Y426V/L479M)": "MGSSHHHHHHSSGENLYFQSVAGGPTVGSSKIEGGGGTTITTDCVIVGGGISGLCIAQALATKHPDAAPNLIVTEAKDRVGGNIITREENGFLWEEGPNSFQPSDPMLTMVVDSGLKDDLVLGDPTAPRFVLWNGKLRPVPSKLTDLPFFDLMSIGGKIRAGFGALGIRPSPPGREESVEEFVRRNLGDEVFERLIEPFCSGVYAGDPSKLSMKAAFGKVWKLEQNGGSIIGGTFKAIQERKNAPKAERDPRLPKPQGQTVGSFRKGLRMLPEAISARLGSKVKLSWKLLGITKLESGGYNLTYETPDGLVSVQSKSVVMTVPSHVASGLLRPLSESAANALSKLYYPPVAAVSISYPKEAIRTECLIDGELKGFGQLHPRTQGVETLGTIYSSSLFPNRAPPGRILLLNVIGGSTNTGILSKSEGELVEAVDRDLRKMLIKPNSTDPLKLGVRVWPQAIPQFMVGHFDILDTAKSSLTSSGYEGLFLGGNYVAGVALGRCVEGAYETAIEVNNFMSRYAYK", "assay": "activity rate of PPO variant in in vitro assay", "format": "biochemical", "settings": "role: substrate; 1 uM protoporphyrinogen IX; no inhibitor", "excerpt": "(§1) A pET24 plasmid containing a DNA sequence encoding variants of AtPPO1 derived from Arabidopsis thaliana with cTPs removed and both a 6×His tag and TEV protease cleavage tag added at the N-terminus, codon-optimised for expression in E. coli, and under control of a T7 promoter, was synthesised by Twist Bioscience. The following variants were synthesised: WT AtPPO1 (SEQ ID NO: 370), AtPPO1 L479M (SEQ ID NO: 371), AtPPO1 L479N (SEQ ID NO: 372), AtPPO1 S305L Y426V (SEQ ID NO: 374) and AtPPO1 S305L Y426V L479M (SEQ ID NO: 373). This plasmid was expressed in E. coli BL21 (DE3) with 50 μg/mL kanamycin selection. 10 mL of overnight cultures grown at 37° C. were used to inoculate 1 L AIM (AIM-Terrific Broth Base including Trace elements, Formedium) in 2 L shake flasks. Cultures were grown at 37° C., 200 rpm for 3 hours and then overnight at 26° C. Cells were harvested centrifugation. 5-15 g of cell pellet was lysed in and resuspended in ratio of 1:1.5 in lysis buffer (20 mM Tris pH8, 500 mM sodium chloride, 10% glycerol, 1× complete Protease EDTA-free Inhibitor Tablet (Roche), 10 mM imidazole). The resuspension was sonicated at 75% using 10 cycles of 30 seconds, 40 seconds off. After sonication Triton X-100 was added to the lysates at a final concentration of 0.5%. The lysates were centrifuged at 20,000 rpm for 25 min at 4° C. Cleared lysates were loaded on His GraviTrap (Cytiva) columns, washed with 20 mL of lysis buffer and eluted in elution buffer (20 mM Tris pH8, 500 mM sodium chloride, 10% glycerol, 200 mM imidazole, 0.03% (v/v) Triton X-100). The eluate was desalted on a PD10 column and 2.5-3.2 mL was collected. Protein concentration was measured and calculated using the absorbance at 280 nm. Extracts were diluted 1 in 4 and 10 uL was analysed by SDS PAGE.\n(§2) Partially purified Protoporphyrinogen Oxidase enzymes were assayed for activity using fluorescence adapted from the method of Shepherd & Dailey (Anal Biochem. 2005 344(1) 115-121). The assay was performed in black 384 well plates with a clear bottom and the total volume of the reaction mixture was 91 ul. The final assay mixture contained 100 mM K2HPO4 pH7.2, 1 mM Na2EDTA, 5 mM DTT, 20% glycerol (v/v), 0.05% Tween 20 (v/v), 1.1% DMSO (v/v), 1 uM protoporphyrinogen IX and 1.5 nM enzyme. Compounds were dissolved in DMSO at 1 mM and a 4-fold serial dilution carried out to give 8 rates. 1 ul was added to the assay mixture. This gave final compound concentrations of 11, 2.7, 0.69, 0.17, 0.04, 0.01, 0.002, 0.0007 uM. Enzyme and inhibitor were preincubated for 5 minutes prior to starting the reaction with the addition of the substrate. […] IC50s were calculated using GraphPad Prism 7.05 nonlinear regression (Table 6). Each compound was tested in duplicate."}, "[2]": {"molecular_target": "T2, His-TEV-AtPP01 ΔcTP L479M (SEQ ID NO: 371) (Arabidopsis thaliana, UniProt P55826, L479M)", "T2 construct": "with cTPs removed; made in house; host or cells: E. coli BL21 (DE3), His GraviTrap, partially purified", "T2 sequence (P55826 with tags, fused parts or gaps L479M)": "T1 sequence (P55826 with tags, fused parts or gaps S305L/Y426V/L479M) with L290S, V411Y", "assay": "activity rate of PPO variant in in vitro assay", "format": "biochemical", "settings": "role: substrate; 1 uM protoporphyrinogen IX; no inhibitor", "excerpt": "as §1, §2"}}, "note": "Where a chain is given by its changes, count along the chain named.", "data": [{"smiles": "C=Cc1c2[nH]c(c1C)Cc1[nH]c(c(CCC(=O)O)c1C)Cc1[nH]c(c(C)c1CCC(=O)O)Cc1[nH]c(c(C)c1C=C)C2", "note": "[protoporphyrinogen IX]", "values": [{"measurement": "Rate", "setting": "[1]", "value": 7.6, "unit": "rfu second^−1 pmole^−1"}, {"measurement": "Rate", "setting": "[2]", "value": 9.9, "unit": "rfu second^−1 pmole^−1"}]}]}
